The supplement of paper PMC10307832

Legend:
Test in all cases: relative viability (nuclei count vs DMSO), 5 days (fraction); higher = more cells survive
NCI-H1755 = system: NCI-H1755
Method in brief: (§1)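 Lung cancer cell lines in 1536-well plates were dosed by pin tool the day after seeding, either with one drug alone or with a fixed anchor-drug dose plus five library-drug doses (not always all listed) in √10 steps. After 5 days, cells were fixed and their nuclei stained in one step (final 0.05% Triton X-100, 1% formaldehyde, 1 ug/ml Hoechst), then counted on 4× images. Relative viability is the nuclei count in treated wells divided by that in vehicle wells. Values are medians of duplicate plates.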

NCI-H1734 = system: NCI-H1734
Method in brief: as §1

NCI-H1793 = system: NCI-H1793
Method in brief: as §1

PC-3 [JPC-3] = system: PC-3 [JPC-3]
Method in brief: as §1

NCI-H1944 = system: NCI-H1944
Method in brief: as §1

NCI-H2228 = system: NCI-H2228
Method in brief: as §1

UMC-11 = system: UMC-11
Method in brief: as §1

EPLC-272H = system: EPLC-272H
Method in brief: as §1

NCI-H1651 = system: NCI-H1651
Method in brief: as §1

NCI-H2405 = system: NCI-H2405
Method in brief: as §1

NCI-H1395 = system: NCI-H1395
Method in brief: as §1

NCI-H2087 = system: NCI-H2087
Method in brief: as §1

ChaGo-K-1 = system: ChaGo-K-1
Method in brief: as §1

HCC-366 = system: HCC-366
Method in brief: as §1

LU99A = system: LU99A
Method in brief: as §1

LC-2-ad = system: LC-2-ad
Method in brief: as §1

NCI-H3122 = system: NCI-H3122
Method in brief: as §1

NCI-H2170 = system: NCI-H2170
Method in brief: as §1

RERF-LC-KJ = system: RERF-LC-KJ
Method in brief: as §1

LOU-NH91 = system: LOU-NH91
Method in brief: as §1

CAL-12T = system: CAL-12T
Method in brief: as §1

ABC-1 = system: ABC-1
Method in brief: as §1

HCC-78 = system: HCC-78
Method in brief: as §1

NCI-H460 = system: NCI-H460
Method in brief: as §1

CC(C)Oc1cc(Nc2nc(N[C@@H](C)c3ccc(F)cn3)ncc2Cl)n[nH]1 [AZ23] + N=C(N)NC(=N)NCCc1ccccc1 [Phenformin] (partner 250 µM) showed a relative viability (NCI-H1755; first compound 0.01 µM) of 0.689, a relative viability (NCI-H1755; first compound 0.03162 µM) of 0.651 and a relative viability (NCI-H1755; first compound 0.3162 µM) of 0.673. For the same molecule, the relative viability (NCI-H1734; first compound 0.01 µM) was 0.335, the relative viability (NCI-H1734; first compound 0.03162 µM) was 0.451 and the relative viability (NCI-H1734; first compound 0.3162 µM) was 0.439. For the same molecule, the relative viability (NCI-H1793; first compound 0.01 µM) was 0.366, the relative viability (NCI-H1793; first compound 0.03162 µM) was 0.439 and the relative viability (NCI-H1793; first compound 0.3162 µM) was 0.45. The relative viability (PC-3 [JPC-3]; first compound 0.01 µM) was 0.502, the relative viability (PC-3 [JPC-3]; first compound 0.03162 µM) was 0.453 and the relative viability (PC-3 [JPC-3]; first compound 0.3162 µM) was 0.476. It also gave a relative viability (NCI-H1944; first compound 0.01 µM) of 0.197, a relative viability (NCI-H1944; first compound 0.03162 µM) of 0.225 and a relative viability (NCI-H1944; first compound 0.3162 µM) of 0.219. The relative viability (NCI-H2228; first compound 0.01 µM) was 0.401, the relative viability (NCI-H2228; first compound 0.03162 µM) was 0.302 and the relative viability (NCI-H2228; first compound 0.3162 µM) was 0.252. It also gave a relative viability (UMC-11; first compound 0.01 µM) of 0.341, a relative viability (UMC-11; first compound 0.03162 µM) of 0.305 and a relative viability (UMC-11; first compound 0.3162 µM) of 0.324. For the same molecule, the relative viability (EPLC-272H; first compound 0.01 µM) was 0.33, the relative viability (EPLC-272H; first compound 0.03162 µM) was 0.302 and the relative viability (EPLC-272H; first compound 0.3162 µM) was 0.378. It also gave a relative viability (NCI-H1651; first compound 0.03162 µM) of 0.332, a relative viability (NCI-H1651; first compound 0.3162 µM) of 0.356 and a relative viability (NCI-H2405; first compound 0.01 µM) of 0.33. For the same molecule, the relative viability (NCI-H2405; first compound 0.03162 µM) was 0.429, the relative viability (NCI-H2405; first compound 0.3162 µM) was 0.382 and the relative viability (NCI-H1395; first compound 0.03162 µM) was 0.483. It also gave a relative viability (NCI-H1395; first compound 0.3162 µM) of 0.451, a relative viability (NCI-H2087; first compound 0.01 µM) of 0.645 and a relative viability (NCI-H2087; first compound 0.03162 µM) of 0.449. It also gave a relative viability (NCI-H2087; first compound 0.3162 µM) of 0.458, a relative viability (ChaGo-K-1; first compound 0.01 µM) of 0.497 and a relative viability (ChaGo-K-1; first compound 0.03162 µM) of 0.458. For the same molecule, the relative viability (ChaGo-K-1; first compound 0.3162 µM) was 0.529, the relative viability (HCC-366; first compound 0.01 µM) was 0.614 and the relative viability (HCC-366; first compound 0.03162 µM) was 0.641. For the same molecule, the relative viability (HCC-366; first compound 0.3162 µM) was 0.658, the relative viability (LU99A; first compound 0.01 µM) was 0.912 and the relative viability (LU99A; first compound 0.03162 µM) was 0.976. The relative viability (LU99A; first compound 0.3162 µM) was 0.882, the relative viability (LC-2-ad; first compound 0.01 µM) was 0.544 and the relative viability (LC-2-ad; first compound 0.03162 µM) was 0.611. It also gave a relative viability (LC-2-ad; first compound 0.3162 µM) of 0.528, a relative viability (NCI-H3122; first compound 0.01 µM) of 0.387 and a relative viability (NCI-H3122; first compound 0.03162 µM) of 0.439. It also gave a relative viability (NCI-H3122; first compound 0.3162 µM) of 0.373, a relative viability (NCI-H2170; first compound 0.01 µM) of 0.463 and a relative viability (NCI-H2170; first compound 0.03162 µM) of 0.424. The relative viability (NCI-H2170; first compound 0.3162 µM) was 0.489, the relative viability (RERF-LC-KJ; first compound 0.01 µM) was 0.455 and the relative viability (RERF-LC-KJ; first compound 0.03162 µM) was 0.457. The relative viability (RERF-LC-KJ; first compound 0.3162 µM) was 0.463, the relative viability (LOU-NH91; first compound 0.01 µM) was 0.713 and the relative viability (LOU-NH91; first compound 0.03162 µM) was 0.755. The relative viability (LOU-NH91; first compound 0.3162 µM) was 0.728, the relative viability (CAL-12T; first compound 0.03162 µM) was 0.591 and the relative viability (CAL-12T; first compound 0.3162 µM) was 0.524. For the same molecule, the relative viability (ABC-1; first compound 0.01 µM) was 0.211, the relative viability (ABC-1; first compound 0.03162 µM) was 0.221 and the relative viability (ABC-1; first compound 0.3162 µM) was 0.236. For the same molecule, the relative viability (HCC-78; first compound 0.01 µM) was 0.692, the relative viability (HCC-78; first compound 0.03162 µM) was 0.656 and the relative viability (HCC-78; first compound 0.3162 µM) was 0.583. For the same molecule, the relative viability (NCI-H460; first compound 0.01 µM) was 0.335, the relative viability (NCI-H460; first compound 0.03162 µM) was 0.601 and the relative viability (NCI-H460; first compound 0.3162 µM) was 0.549.

CC(C)Oc1cc(Nc2nc(N[C@@H](C)c3ccc(F)cn3)ncc2Cl)n[nH]1 [AZ23] + Cc1nc(Nc2ncc(C(=O)Nc3c(C)cccc3Cl)s2)cc(N2CCN(CCO)CC2)n1 [Dasatinib] (partner 0.075 µM) was tested, and the relative viability (NCI-H1755; first compound 0.01 µM) was 0.456, the relative viability (NCI-H1755; first compound 0.03162 µM) was 0.488 and the relative viability (NCI-H1755; first compound 0.3162 µM) was 0.357. It also gave a relative viability (NCI-H1734; first compound 0.01 µM) of 0.445, a relative viability (NCI-H1734; first compound 0.03162 µM) of 0.454 and a relative viability (NCI-H1734; first compound 0.3162 µM) of 0.448. For the same molecule, the relative viability (NCI-H1793; first compound 0.01 µM) was 0.375, the relative viability (NCI-H1793; first compound 0.03162 µM) was 0.404 and the relative viability (NCI-H1793; first compound 0.3162 µM) was 0.383. For the same molecule, the relative viability (PC-3 [JPC-3]; first compound 0.01 µM) was 1.13, the relative viability (PC-3 [JPC-3]; first compound 0.03162 µM) was 1.08 and the relative viability (PC-3 [JPC-3]; first compound 0.3162 µM) was 1.01. It also gave a relative viability (NCI-H1944; first compound 0.01 µM) of 0.198, a relative viability (NCI-H1944; first compound 0.03162 µM) of 0.246 and a relative viability (NCI-H1944; first compound 0.3162 µM) of 0.208. The relative viability (NCI-H2228; first compound 0.01 µM) was 0.571, the relative viability (NCI-H2228; first compound 0.03162 µM) was 0.504 and the relative viability (NCI-H2228; first compound 0.3162 µM) was 0.445. For the same molecule, the relative viability (UMC-11; first compound 0.01 µM) was 0.593, the relative viability (UMC-11; first compound 0.03162 µM) was 0.504 and the relative viability (UMC-11; first compound 0.3162 µM) was 0.481. It also gave a relative viability (EPLC-272H; first compound 0.01 µM) of 0.38, a relative viability (EPLC-272H; first compound 0.03162 µM) of 0.305 and a relative viability (EPLC-272H; first compound 0.3162 µM) of 0.273. The relative viability (NCI-H1651; first compound 0.03162 µM) was 0.471, the relative viability (NCI-H1651; first compound 0.3162 µM) was 0.386 and the relative viability (NCI-H2405; first compound 0.01 µM) was 0.225. It also gave a relative viability (NCI-H2405; first compound 0.03162 µM) of 0.23, a relative viability (NCI-H2405; first compound 0.3162 µM) of 0.215 and a relative viability (NCI-H1395; first compound 0.03162 µM) of 0.481. The relative viability (NCI-H1395; first compound 0.3162 µM) was 0.359, the relative viability (NCI-H2087; first compound 0.01 µM) was 1.29 and the relative viability (NCI-H2087; first compound 0.03162 µM) was 1.04. For the same molecule, the relative viability (NCI-H2087; first compound 0.3162 µM) was 0.751, the relative viability (ChaGo-K-1; first compound 0.01 µM) was 0.687 and the relative viability (ChaGo-K-1; first compound 0.03162 µM) was 0.627. The relative viability (ChaGo-K-1; first compound 0.3162 µM) was 0.566, the relative viability (HCC-366; first compound 0.01 µM) was 0.58 and the relative viability (HCC-366; first compound 0.03162 µM) was 0.705. It also gave a relative viability (HCC-366; first compound 0.3162 µM) of 0.79, a relative viability (LU99A; first compound 0.01 µM) of 0.623 and a relative viability (LU99A; first compound 0.03162 µM) of 0.646. It also gave a relative viability (LU99A; first compound 0.3162 µM) of 0.369, a relative viability (LC-2-ad; first compound 0.01 µM) of 0.569 and a relative viability (LC-2-ad; first compound 0.03162 µM) of 0.588. The relative viability (LC-2-ad; first compound 0.3162 µM) was 0.564, the relative viability (NCI-H3122; first compound 0.01 µM) was 0.946 and the relative viability (NCI-H3122; first compound 0.03162 µM) was 0.831. The relative viability (NCI-H3122; first compound 0.3162 µM) was 0.856, the relative viability (NCI-H2170; first compound 0.01 µM) was 0.498 and the relative viability (NCI-H2170; first compound 0.03162 µM) was 0.618. It also gave a relative viability (NCI-H2170; first compound 0.3162 µM) of 0.598, a relative viability (RERF-LC-KJ; first compound 0.01 µM) of 0.91 and a relative viability (RERF-LC-KJ; first compound 0.03162 µM) of 0.948. It also gave a relative viability (RERF-LC-KJ; first compound 0.3162 µM) of 0.891, a relative viability (LOU-NH91; first compound 0.01 µM) of 0.565 and a relative viability (LOU-NH91; first compound 0.03162 µM) of 0.589. It also gave a relative viability (LOU-NH91; first compound 0.3162 µM) of 0.551, a relative viability (CAL-12T; first compound 0.03162 µM) of 0.363 and a relative viability (CAL-12T; first compound 0.3162 µM) of 0.221. The relative viability (ABC-1; first compound 0.01 µM) was 0.583, the relative viability (ABC-1; first compound 0.03162 µM) was 0.766 and the relative viability (ABC-1; first compound 0.3162 µM) was 0.546. It also gave a relative viability (HCC-78; first compound 0.01 µM) of 0.323, a relative viability (HCC-78; first compound 0.03162 µM) of 0.381 and a relative viability (HCC-78; first compound 0.3162 µM) of 0.328. It also gave a relative viability (NCI-H460; first compound 0.01 µM) of 0.295, a relative viability (NCI-H460; first compound 0.03162 µM) of 0.592 and a relative viability (NCI-H460; first compound 0.3162 µM) of 0.503.
